Literature values in patent US9060935B2, “Pharmaceutical lipid compositions” (CAMURUS AB, priority 2005, dated 2015).

Key:
[1] = room temperature
[2] = native GLP-1

Compound	equilibrium water solubility [1]	plasma half-life [2]
CCCCCCCC/C=C\CCCCCCCC(=O)OCC(O)CO (centres unmarked) [GMO, glycerol monooleate]	~10^−7 M	
GLP-1: native glucoregulatory hormone, 37-amino acid peptide with a MW of 4.2 KDa		below 2 minutes
